Patent publication US8629159B2, “Thiazolidinedione analogues” (Metabolic Solutions Development Company, LLC, priority 2006, dated 2014)

What was measured:
PPARγ = biological target: T1, PPARγ (Homo sapiens, UniProt P37231); experiment: commercial PPARγ binding assay (Invitrogen; PPAR-LBD/Fluormone PPAR Green complex); conditions: for Binding to PPARγ (Fluormone displacement signal): mean of three experiments
T1 construct: purchased Invitrogen Corporation, Carlsbad, Calif
T1 sequence (P37231 238-503 limits assumed): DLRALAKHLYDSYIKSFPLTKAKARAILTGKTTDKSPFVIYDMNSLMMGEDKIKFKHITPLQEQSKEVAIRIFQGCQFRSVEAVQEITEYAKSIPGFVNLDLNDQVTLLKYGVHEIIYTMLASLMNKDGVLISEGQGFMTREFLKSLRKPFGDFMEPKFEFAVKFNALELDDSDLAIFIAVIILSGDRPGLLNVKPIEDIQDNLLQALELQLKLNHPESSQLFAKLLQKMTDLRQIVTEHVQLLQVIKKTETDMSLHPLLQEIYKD
Method: The ability of several exemplary compounds of the present invention, shown in Table A, to bind to PPARγ was measured using a commercial binding assay (Invitrogen Corporation, Carlsbad, Calif.) that measures the test compounds ability to bind with PPAR-LBD/Fluormone PPAR Green complex. These assays were performed on three occasions with each assay using four separate wells (quadruplicate) at each concentration of tested compound. The data are mean and SEM of the values obtained from the three experiments. […] Compounds were added at the concentrations shown, which range from 0.1-100 micromolar.

[1] = system: Male Dahl salt-sensitive rats; experiment: Antihypertensive action in hypertensive Dahl salt-sensitive rats (high salt diet), mean blood pressure by direct femoral arterial cannulation; assay type: in vivo, rat; conditions: oral gavage daily, Compound 1 40 mg/kg/day, HCTZ 5 mg/kg/day
Method: Male Dahl salt-sensitive rats were made hypertensive by feeding of a high salt diet (4% salt) for 3 weeks and then treated daily with the indicated dose of hydrochlorothiazide (HCTZ), compound 1, or the combination of HCTZ and compound 1, as compared to the vehicle alone (1% carboxymethylcellulose/0.01% Tween 20) by oral gavage for 8 days. Mean blood pressure was measured by direct femoral arterial cannulation under fed conditions on day 7 and after a 6 hour fast on day 8.
Referring to FIG. 2 and Table C above, the antihypertensive action of compound 1 is additive with hydrocholothiazide (HCTZ). Data are mean and (SEM) mean blood pressure taken by direct cannulation. N=5; * p<0.05 less than blood pressure in HCTZ-treated rats.

SMILES | Binding to PPARγ (Fluormone displacement signal) (PPARγ; 1 μM compound) | Binding to PPARγ (Fluormone displacement signal) (PPARγ; 3 μM compound) | Binding to PPARγ (Fluormone displacement signal) (PPARγ; 10 μM compound) | Binding to PPARγ (Fluormone displacement signal) (PPARγ; 50 μM compound) | Binding to PPARγ (Fluormone displacement signal) (PPARγ; 100 μM compound) | Binding to PPARγ (Fluormone displacement signal) (PPARγ; .1 μM compound) | Binding to PPARγ (Fluormone displacement signal) (PPARγ; .3 μM compound) | Mean blood pressure, Fasted ([1]; 6 hour fast, day 8) | Mean blood pressure, Fed ([1]; fed, day 7) | binding to PPARγ (in words) (PPARγ; FIG. 1 and Table B)
CCc1ccc(CCOc2ccc(CC3(C)SC(=O)NC3=O)cc2)nc1 (single isomer, unassigned) [Compound 4] | 234 | 224 | 200 | 122 | 91 | 236 | 230 | – | – | –
CCc1ccc(C(COc2ccc(CC3SC(=O)NC3=O)cc2)CC(=O)OC)nc1 (stereo not drawn) [Compound 12] | 198 | 155 | 112 | 80 | 85 | 243 | 222 | – | – | –
CCc1ccc([C@@H](O)COc2ccc(CC3(C)SC(=O)NC3=O)cc2)nc1 (stereo partly drawn) [Compound 8] | 239 | 241 | 233 | 199 | 186 | 237 | 243 | – | – | –
CCc1ccc(C(=O)COc2ccc(CC3(C)SC(=O)NC3=O)cc2)nc1 (stereo not drawn) [Compound 10] | 240 | 234 | 219 | 126 | 93 | 245 | 239 | – | – | –
NS(=O)(=O)c1cc2c(cc1Cl)NCNS2(=O)=O [HCTZ, hydrochlorothiazide, reference compound] | – | – | – | – | – | – | – | 155 | 170 | –
CCc1ccc([C@H](O)COc2ccc(CC3(C)SC(=O)NC3=O)cc2)nc1 (stereo partly drawn) [Compound 9] | 239 | 233 | 234 | 189 | 164 | 237 | 237 | – | – | –
CCc1ccc([C@H](O)COc2ccc(CC3SC(=O)NC3=O)cc2)nc1 (stereo partly drawn) [Compound 3] | 203 | 185 | 134 | 88 | 77 | 226 | 221 | – | – | –
CCc1ccc(CCOc2ccc(CC3(C)SC(=O)NC3=O)cc2)nc1 (single isomer, unassigned) [Compound 7] | 248 | 237 | 210 | 144 | 105 | 249 | 246 | – | – | –
CCc1ccc(C(O)COc2ccc(CC3(C)SC(=O)NC3=O)cc2)nc1 (stereo not drawn) [Compound 5] | 228 | 226 | 212 | 132 | 106 | 235 | 230 | – | – | –
CCc1ccc([C@@H](O)COc2ccc(CC3SC(=O)NC3=O)cc2)nc1 (stereo partly drawn) [Compound 2] | 238 | 236 | 223 | 162 | 136 | 231 | 233 | – | – | particularly poor binders
CCc1ccc(CCOc2ccc(CC3(C)SC(=O)NC3=O)cc2)nc1 (single isomer, unassigned) [Compound 6] | 233 | 223 | 198 | 126 | 99 | 246 | 246 | – | – | –
CCc1ccc(C(=CCO)COc2ccc(CC3SC(=O)NC3=O)cc2)nc1 (stereo not drawn) [Compound 13] | 229 | 230 | 204 | 148 | 108 | 244 | 243 | – | – | –
CCc1ccc(C(=CC(=O)OC)COc2ccc(CC3SC(=O)NC3=O)cc2)nc1 (stereo not drawn) [Compound 11] | 232 | 229 | 165 | 128 | 78 | 230 | 227 | – | – | –
